# Assay results from patent US8236761B2, “C-Met receptor regulation by angiotensin IV (AT4) receptor ligands” (Washington State University Research Foundation, priority 2006, dated 2012).
# Non-standard residues stand in square brackets, D forms with d. No end group written: not given here. Nle = CCCC[C@H](N)C(=O)O
# Experiments:
# MDCK cells [1] = assay: HGF-induced MDCK cell scattering (coverslip assay); assay type: cell-based, canine
# Protocol: FIG. 8A: Confluent MDCK cells on coverslips were treated with HGF (110 pM), or HGF (110 pM)+Norleual (100 pM) for 48 hours. Digital images of top, bottom, left, and right sectors were acquired and the scattering of cells In each digital image was scored in blinded fashion and normalized to control scores. The difference between HGF and HGF+Norleual groups was significant (*p=0.0245, n=3). Error bars indicate±SEM. FIG. 8B: MDCK cells were plated on 6 mm diameter coverslips in DMEM 10% FBS and grown to 100% confluency. The coverslips were then transferred to fresh 6 well plates and the cells were serum-deprived for 24 hours to synchronize the cells in the same growth state. Thereafter, the 20 ng/ml of HGF alone and in the presence of 10^−10 M Norleual in a 1% FBS DMEM was added to the cells. […] This ring was photographed and loaded on to NIH image J. Using NIH image J, the pixel count was determined for each ring. […]
# Scattering assay. […] Scattering was scored in blinded fashion by comparison to a set of calibration scattering images by two investigators. […]
# To explore the physiological significance of the angiotensin-like factor Norleual's ability to depress c-Met signaling, Norleual's effect on HGF induced cell scattering of Madin-Darby canine kidney (MDCK) cells was assessed with the coverslip assay (Miao et al., 2003 J. Cell Biol. 162: 1281-1292). […]
# MDCK cells [2] = assay: c-Met/HGF stimulated MDCK cell proliferation (MTT); assay type: cell-based, canine; conditions: HGF 10 ng/ml, COMPOUND 2 10^−6M to 10^−14M, four days
# Protocol: Thereafter, 10 ng/ml of HGF alone and with the indicated concentrations of Norleual in a 1% FBS DMEM were added to the cells. The cells were cultured under these conditions for four days. On the fourth day, the treatment media was aspirated and replaced with 5 mg/ml of MTT reagent in 0.1 M glycine buffer (Invitrogen). The MTT reagent was incubated with the cells for four hours at 37° C. before adding DMSO to solubilize the cells and record the MTT absorbance on a plate reader. The controls were treated as background and subtracted from all of the treatments to determine the increase in proliferation due solely to HGF treatment. Differences between the treatments were determined using one-way ANOVA with Bonferroni's post-hoc analysis (Prism statistical analysis software). * indicate p<0.05 vs. HGF treatment. N=6, mean+/−SEM. […] Madin-Darby Canine Kidney (MDCK) cells were plated in the wells of a 96 well plate in 100 μl of complete Dulbecco's Modified Eagle's Medium (DMEM). The cells were serum starved for 24 hours to induce quiescence. […] Absorbance of the cleaved substrate was quantitated on a Biotek Synergy HT 2 plate reader according to the manufacturer's instructions. […] The data was analyzed with Prism® (GraphPad, San Diego, Calif.) statistical analysis software. * indicates p<0.01 vs. HGF treatment by Tukey's post-hoc analysis. […]
substance,measurement,setting,value
Nle-Tyr-Leu-ψ-His-Pro-Phe ([Nle]YLHPF; also: reduced peptide bond psi(CH2NH2) between Leu and His) [Norleual],HGF-induced MDCK cell scattering,"MDCK cells [1]; HGF 110 pM + Norleual 100 pM, 48 hours, FIG. 8A",inhibited
same,Hepatocyte growth factor-dependent cell scattering,"MDCK cells [1]; HGF 20 ng/ml, COMPOUND 2 10^−10M, FIG. 7",inhibited
same,HGF stimulated MDCK cellular proliferation,MDCK cells [2],attenuation
same,HGF stimulated MDCK cellular proliferation,MDCK cells [2]; listed as Compound 2,inhibited
